{
  "source": "paper PMC6044835",
  "about": "“Expression, Purification, and Biochemical Characterization of the Flavocytochrome P450 CYP505A30 from Myceliophthora thermophila” (ACS Omega, 2017)",
  "key": {"CYP505A30 [1]": {"biological_target": "T1, CYP505A30 (Thermothelomyces thermophilus, UniProt G2QDZ3)", "T1 sequence (G2QDZ3 entry or part of it)": "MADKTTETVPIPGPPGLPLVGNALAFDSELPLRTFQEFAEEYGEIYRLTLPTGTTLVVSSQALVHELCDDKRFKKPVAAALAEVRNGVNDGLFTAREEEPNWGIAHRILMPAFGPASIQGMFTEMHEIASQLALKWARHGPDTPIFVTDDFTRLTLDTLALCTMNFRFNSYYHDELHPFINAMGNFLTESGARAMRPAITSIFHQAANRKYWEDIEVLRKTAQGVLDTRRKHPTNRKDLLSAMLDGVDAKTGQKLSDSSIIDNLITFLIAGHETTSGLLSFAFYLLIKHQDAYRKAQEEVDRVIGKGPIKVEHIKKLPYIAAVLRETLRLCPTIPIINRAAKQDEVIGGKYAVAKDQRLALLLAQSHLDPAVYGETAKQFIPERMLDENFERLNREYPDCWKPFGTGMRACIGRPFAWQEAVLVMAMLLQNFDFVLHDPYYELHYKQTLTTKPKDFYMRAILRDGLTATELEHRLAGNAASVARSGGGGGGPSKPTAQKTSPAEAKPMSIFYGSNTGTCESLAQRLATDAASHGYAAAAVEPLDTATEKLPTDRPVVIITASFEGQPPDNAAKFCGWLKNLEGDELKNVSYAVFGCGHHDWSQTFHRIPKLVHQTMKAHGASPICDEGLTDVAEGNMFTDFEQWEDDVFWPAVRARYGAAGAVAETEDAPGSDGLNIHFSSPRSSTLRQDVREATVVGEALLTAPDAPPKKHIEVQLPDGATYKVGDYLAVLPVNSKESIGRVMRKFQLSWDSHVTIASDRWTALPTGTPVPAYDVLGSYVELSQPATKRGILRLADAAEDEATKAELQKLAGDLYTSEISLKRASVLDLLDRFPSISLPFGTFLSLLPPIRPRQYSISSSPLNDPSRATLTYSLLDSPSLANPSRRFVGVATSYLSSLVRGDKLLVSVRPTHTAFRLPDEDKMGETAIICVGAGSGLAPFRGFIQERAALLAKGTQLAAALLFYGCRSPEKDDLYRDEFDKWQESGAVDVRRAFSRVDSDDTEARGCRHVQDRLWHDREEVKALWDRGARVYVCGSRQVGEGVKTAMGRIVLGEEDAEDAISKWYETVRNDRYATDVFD"}, "CYP505A30 [2]": {"biological_target": "T1, CYP505A30", "assay": "UV–visible spectral binding titration with intact CYP505A30", "conditions": "for Kd: substrate binding to intact CYP505A30, heme absorbance change, 25 °C"}, "CYP505A1 [3]": {"test_system": "CYP505A1", "assay": "CYP505A1 dodecanoic acid oxidation product distribution (literature)", "type": "biochemical, Fusarium oxysporum", "conditions": "CYP505A1, from literature values"}, "CYP505A30 heme domain [4]": {"biological_target": "T2, CYP505A30 heme domain (Thermothelomyces thermophilus, UniProt G2QDZ3)"}, "CYP505A1 [5]": {"test_system": "CYP505A1", "parameters": "method as in PMID 11985584", "conditions": "cited from earlier work"}, "CYP505A30 heme domain [6]": {"biological_target": "T2, CYP505A30 heme domain", "assay": "UV–visible spectral binding titration with CYP505A30 heme domain"}, "CYP505A30 [7]": {"biological_target": "T1, CYP505A30", "remark": "listed apart in the source"}, "P450 BM3 [8]": {"test_system": "P450 BM3", "parameters": "method as in PMID 1727637", "conditions": "cited from earlier work"}, "rat CPR": {"biological_target": "rat CPR", "conditions": "cited from earlier work"}, "heme domain": {"biological_target": "T3, heme domain (Thermothelomyces thermophilus, UniProt G2QDZ3)", "T3 construct": "gene MYCTH_101224; heme domain, amino acids 1-464 (stop codon at Gly465, named D464X), N-terminal hexahistidine tag (pET15b), expressed in E. coli", "T3 sequence (G2QDZ3 1-464)": "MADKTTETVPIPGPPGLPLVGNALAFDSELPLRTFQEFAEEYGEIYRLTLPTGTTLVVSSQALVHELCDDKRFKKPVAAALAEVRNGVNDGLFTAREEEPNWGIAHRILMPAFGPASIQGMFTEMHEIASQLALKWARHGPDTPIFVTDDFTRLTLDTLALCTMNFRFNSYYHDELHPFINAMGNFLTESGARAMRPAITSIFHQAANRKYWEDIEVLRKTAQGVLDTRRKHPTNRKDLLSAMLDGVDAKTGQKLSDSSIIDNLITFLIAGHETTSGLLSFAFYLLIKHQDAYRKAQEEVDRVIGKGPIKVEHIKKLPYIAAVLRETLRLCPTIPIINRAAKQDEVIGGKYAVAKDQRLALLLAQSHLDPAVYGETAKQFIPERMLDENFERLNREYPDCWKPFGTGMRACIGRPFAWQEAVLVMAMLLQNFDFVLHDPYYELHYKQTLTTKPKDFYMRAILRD", "assay": "UV-visible spectral binding titration of fatty acid substrates (type I heme Soret shift) to ca. 4-6 uM enzyme in 50 mM potassium phosphate pH 7.0 at 25 °C, hyperbolic or Morrison fit."}, "CYP505A30 [9]": {"biological_target": "T1, CYP505A30", "assay": "UV-visible spectral binding titration of fatty acid substrates (type I heme Soret shift) to ca. 4-6 uM enzyme in 50 mM potassium phosphate pH 7.0 at 25 °C, hyperbolic or Morrison fit.", "parameters": "gene MYCTH_101224; intact CYP505A30, amino acids 1-1080, N-terminal hexahistidine tag (pET15b), expressed in E. coli"}, "CYP505A30 heme domain [10]": {"biological_target": "T2, CYP505A30 heme domain", "conditions": "arachidonic acid-bound heme domain, vs NHE"}, "P450 BM3 [11]": {"test_system": "P450 BM3", "conditions": "cited from earlier work"}, "[12]": {"biological_target": "Desulfovibrio vulgaris flavodoxin", "conditions": "D. vulgaris flavodoxin; cited from earlier work"}, "[13]": {"biological_target": "FMN (flavodoxin-like) domain of human reductase", "parameters": "method as in PMID 6778861, PMID 11695890, PMID 12600198", "conditions": "cited from earlier work"}, "[14]": {"test_system": "FMN (flavodoxin-like) domain of P450 BM3 reductase", "parameters": "method as in PMID 6778861, PMID 11695890, PMID 12600198", "conditions": "cited from earlier work"}},
  "note": "Like-named read-outs stand apart in the source and are kept apart here.",
  "data": [
    {"molecule": "CCCCCCCCCCCC(=O)O", "note": "[dodecanoic acid]", "values": [
      {"measurement": "HS (%)", "setting": "CYP505A30 [1]", "value": 10, "unit": "%"},
      {"measurement": "Kd", "setting": "CYP505A30 [2]", "value": "6100 ± 400", "unit": "nM"},
      {"measurement": "ratio ω-1/ω-2 hydroxylated products", "setting": "CYP505A1 [3]", "value": 1.5},
      {"measurement": "HS (%)", "setting": "CYP505A30 heme domain [4]", "value": 60, "unit": "%"},
      {"measurement": "ω-1 hydroxylated product proportion", "setting": "CYP505A1 [5]", "value": "~55", "unit": "%"},
      {"measurement": "ω-2 hydroxylated product proportion", "setting": "CYP505A1 [5]", "value": "~37", "unit": "%"},
      {"measurement": "ω-3 hydroxylated product proportion", "setting": "CYP505A1 [5]", "value": "~8", "unit": "%"},
      {"measurement": "Kd", "setting": "CYP505A30 heme domain [6]", "value": "9000 ± 900", "unit": "nM"},
      {"measurement": "ratio ω-1/ω-2 hydroxylated products", "setting": "CYP505A30 [7]; CYP505A30", "value": 8.8},
      {"measurement": "ω-1 hydroxylated product proportion", "setting": "CYP505A30 [7]; CYP505A30, GC–MS", "value": 88, "unit": "%"},
      {"measurement": "ω-2 hydroxylated product proportion", "setting": "CYP505A30 [7]; CYP505A30, GC–MS", "value": "~10", "unit": "%"},
      {"measurement": "ω-3 hydroxylated product proportion", "setting": "CYP505A30 [7]; CYP505A30, GC–MS", "value": 2, "unit": "%"},
      {"measurement": "ω-1 hydroxylated product proportion", "setting": "CYP505A30 [7]; CYP505A30, GC–MS, listed as lauric acid", "value": "approximately 88%"},
      {"measurement": "ω-1 hydroxylated product proportion", "setting": "P450 BM3 [8]", "value": 48, "unit": "%"},
      {"measurement": "ω-2 hydroxylated product proportion", "setting": "P450 BM3 [8]", "value": 26, "unit": "%"},
      {"measurement": "ω-3 hydroxylated product proportion", "setting": "P450 BM3 [8]", "value": 26, "unit": "%"}
    ]},
    {"molecule": "Cc1cc2nc3c(=O)[nH]c(=O)nc-3n(C[C@H](O)[C@H](O)[C@H](O)COP(=O)(O)OP(=O)(O)OC[C@H]3O[C@@H](n4cnc5c(N)ncnc54)[C@H](O)[C@@H]3O)c2cc1C", "note": "[FAD, flavin adenine dinucleotide]", "values": [
      {"measurement": "binding", "setting": "rat CPR", "value": "subnanomolar"}
    ]},
    {"molecule": "CCCCCCCCCCCCCCCC(=O)NCC(=O)O", "note": "[N-palmitoylglycine (NPG), N-palmitoylglycine]", "values": [
      {"measurement": "Kd", "setting": "heme domain", "value": "2700 ± 800", "unit": "nM"},
      {"measurement": "Kd", "setting": "CYP505A30 [9]", "value": "5400 ± 100", "unit": "nM"}
    ]},
    {"molecule": "CCCCC/C=C\\C/C=C\\C/C=C\\C/C=C\\CCCC(=O)O", "note": "[arachidonic acid]", "values": [
      {"measurement": "Kd", "setting": "CYP505A30 [2]", "value": "1700 ± 100", "unit": "nM"},
      {"measurement": "HS (%)", "setting": "CYP505A30 [2]; extent of HS heme iron accumulated, intact CYP505A30, estimated to nearest 5%", "value": 60, "unit": "%"},
      {"measurement": "heme Fe^III/Fe^II midpoint potential E^0′", "setting": "CYP505A30 heme domain [10]", "value": "−69 ± 3", "unit": "mV"},
      {"measurement": "kcat", "setting": "P450 BM3 [11]; P450 BM3, similar conditions", "value": "285 ± 32", "unit": "s^–1"},
      {"measurement": "rate constant of oxidation", "setting": "P450 BM3 [11]; P450 BM3", "value": "> 17 000 min^–1"},
      {"measurement": "Kd", "setting": "CYP505A30 heme domain [6]", "value": "120 ± 10", "unit": "nM"},
      {"measurement": "HS (%)", "setting": "CYP505A30 heme domain [6]; extent of HS heme iron accumulated, heme domain, estimated to nearest 5%", "value": 65, "unit": "%"}
    ]},
    {"molecule": "Cc1cc2nc3c(=O)[nH]c(=O)nc-3n(C[C@H](O)[C@H](O)[C@H](O)COP(=O)(O)O)c2cc1C", "note": "[FMN, flavin mononucleotide]", "values": [
      {"measurement": "Kd", "setting": "[12]", "value": 2.4, "unit": "nM"},
      {"measurement": "Kd", "setting": "[13]", "value": "42 ± 7", "unit": "nM"},
      {"measurement": "Kd", "setting": "[14]", "value": "86 ± 14", "unit": "nM"}
    ]}
  ]
}
